According to patent US7323496B2, “Compounds for treatment of inflammation, diabetes and related disorders” (Theracos, Inc., priority 1999, dated 2008):

Key:
[1] = tested on: 3T3-L1 adipocytes; assay: Glucose uptake in 3T3-L1 differentiated adipocytes (14C-deoxyglucose); type: cell-based, mouse; settings: 48 hours with different concentrations, percentage of basal level, FIG. 1
[2] = tested on: 3T3-L1 adipocytes; assay: Insulin-stimulated glucose uptake in 3T3-L1 adipocytes; type: cell-based, mouse; settings: 5 μM, 48 hours, different concentrations of insulin, versus vehicle, FIG. 2
[3] = tested on: ob/ob mice; assay: Glucose-lowering effect in ob/ob mice; type: in vivo, mouse; settings: 10 mg/kg daily oral, p<0.05
[4] = tested on: ob/ob mice; assay: Lipid-lowering effects in ob/ob mice; type: in vivo, mouse; settings: 10 mg/kg daily oral, day 8, versus vehicle, p<0.05
[5] = tested on: TNF-alpha; assay: Inhibition of LPS-induced TNF-alpha production in RAW264.7 cells (ELISA); type: cell-based, mouse; settings: RAW264.7, 10, 30 or 100 μM, LPS 0.1 μg/ml 6 hours; effect approached dexamethasone 1 μM, FIG. 5
[6] = tested on: IL-1 beta; assay: Inhibition of LPS-induced IL-1 beta production in RAW264.7 cells (ELISA); type: cell-based, mouse; settings: RAW264.7, 10, 30 or 100 μM, LPS 0.1 μg/ml 6 hours; same approximate magnitude as dexamethasone 1 μM, FIG. 6
[7] = tested on: IL-6; assay: Inhibition of LPS-induced IL-6 production in RAW264.7 cells (ELISA); type: cell-based, mouse; settings: RAW264.7, 10, 30 or 100 μM, LPS 0.1 μg/ml 6 hours; greater than dexamethasone 1 μM, FIG. 7
[8] = tested on: iNOS; assay: Inhibition of LPS-induced iNOS production in RAW264.7 cells (Western blot); type: cell-based, mouse; settings: RAW264.7, 10, 30 or 100 μM, FIG. 8
[9] = tested on: COX-2; assay: Inhibition of LPS-induced COX-2 production in RAW264.7 cells (Western blot); type: cell-based, mouse; settings: LPS-stimulated RAW264.7, 10, 30 or 100 μM, FIG. 8
[10] = tested on: COX-1; assay: COX-1 production in LPS-stimulated RAW264.7 cells (Western blot); type: cell-based, mouse; settings: LPS-stimulated RAW264.7, 10, 30 or 100 μM, FIG. 8
[11] = tested on: 3T3-L1 adipocytes; assay: Stimulation of glucose uptake in differentiated 3T3-L1 adipocytes with 100 nM insulin; type: cell-based; settings: Mus musculus, 48 h, vehicle set at 100%, read-out: Percent Stimulation of Glucose Uptake
[12] = tested on: PDE4; assay: Inhibition of PDE4 enzyme activity; type: biochemical, human; settings: for Percent Inhibition of Enzyme Activity, PDE4: PDE4 from human U-937 cells, 1 μM cAMP
[13] = biological target: T1, PDE3 (Homo sapiens, UniProt Q14432); assay: Inhibition of PDE3 enzyme activity; type: biochemical; settings: PDE3 from human platelets
T1 construct: PDE3 partially purified from human platelets were used; from tissue; host or cells: human platelets
T1 sequence (Q14432 whole entry): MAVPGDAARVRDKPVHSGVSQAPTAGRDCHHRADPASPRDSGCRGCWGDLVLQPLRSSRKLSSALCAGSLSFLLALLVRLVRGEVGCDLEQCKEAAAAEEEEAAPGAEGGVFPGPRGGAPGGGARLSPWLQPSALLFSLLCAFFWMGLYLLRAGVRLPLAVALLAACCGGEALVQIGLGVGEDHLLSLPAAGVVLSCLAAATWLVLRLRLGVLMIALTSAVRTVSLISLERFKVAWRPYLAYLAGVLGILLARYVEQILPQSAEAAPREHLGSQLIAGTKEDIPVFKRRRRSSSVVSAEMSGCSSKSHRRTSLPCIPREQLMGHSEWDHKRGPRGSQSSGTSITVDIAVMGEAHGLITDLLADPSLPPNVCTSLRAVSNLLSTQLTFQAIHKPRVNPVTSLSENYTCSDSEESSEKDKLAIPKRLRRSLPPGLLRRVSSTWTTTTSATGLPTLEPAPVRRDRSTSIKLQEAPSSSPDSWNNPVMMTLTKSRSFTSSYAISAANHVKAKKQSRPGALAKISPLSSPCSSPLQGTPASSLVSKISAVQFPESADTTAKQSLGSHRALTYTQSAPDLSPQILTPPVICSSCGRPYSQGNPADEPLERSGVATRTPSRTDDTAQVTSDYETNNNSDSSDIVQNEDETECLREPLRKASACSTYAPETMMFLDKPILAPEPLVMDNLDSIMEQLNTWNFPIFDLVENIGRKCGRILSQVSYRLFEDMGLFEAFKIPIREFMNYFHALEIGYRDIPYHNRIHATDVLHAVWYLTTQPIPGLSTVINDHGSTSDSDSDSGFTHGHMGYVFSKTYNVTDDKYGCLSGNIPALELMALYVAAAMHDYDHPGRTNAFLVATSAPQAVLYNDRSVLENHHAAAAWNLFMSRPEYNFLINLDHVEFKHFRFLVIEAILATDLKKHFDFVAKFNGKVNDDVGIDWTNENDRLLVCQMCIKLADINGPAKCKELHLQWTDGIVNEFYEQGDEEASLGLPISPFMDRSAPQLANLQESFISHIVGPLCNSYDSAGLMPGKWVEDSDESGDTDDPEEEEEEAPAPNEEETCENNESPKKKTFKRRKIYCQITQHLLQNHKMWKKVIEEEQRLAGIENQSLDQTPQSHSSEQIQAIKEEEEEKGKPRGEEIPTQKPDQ

[14] = tested on: p44/42 MAP kinase; assay: Inhibition of LPS-induced phosphorylation of p44/42 MAP kinase in RAW 264.7 gamma NO(-) cells (Western blot); type: cell-based, mouse; settings: data not shown
[15] = tested on: DBA/1J mice; assay: Collagen-induced arthritis in mice; type: in vivo, mouse; settings: for arthritis clinical score (severity) compared with vehicle controls: FIG. 9
[16] = tested on: TNF-alpha; assay: Inhibition of LPS-induced TNF-alpha production in mice (plasma ELISA); type: in vivo, mouse; settings: summary in words of Table 6, 50 or 100 mg/kg oral
[17] = tested on: human elutriated monocytes; assay: Cell viability of human monocytes (MTS/PMS assay); type: cell-based; settings: 30 μM
[18] = low dose 40 mg/kg oral twice daily for 14 days

## COC(=O)C(=Cc1cc(OC)cc(OC)c1)c1ccc(Oc2ccc(CCC(=O)NC(N)=O)cc2)cc1 [Compound 1, 3-(3,5-dimethoxyphenyl)-2-{4-[4-(3-oxo-3-ureidopropyl)-phenoxy]-phenyl}-acrylyc acid methyl ester]
[1]
  glucose uptake: dose-dependent increase
[2]
  stimulation of glucose uptake by insulin: enhanced
[3]; day 6, versus vehicle
  decrease in blood glucose levels: 36%
[3]; day 8, versus vehicle
  decrease in blood glucose levels: 23%
[4]
  decrease in free fatty acids: 19%
  decrease in serum triglycerides: 49%
[5]
  inhibition of LPS-induced production of TNF-alpha: significantly inhibited
[6]
  inhibition of LPS-induced production of IL-1 beta: significantly inhibited
[7]
  inhibition of LPS-induced production of IL-6: significantly inhibited
[8]
  inhibition of LPS-induced iNOS production: dose-dependent inhibition
[9]
  inhibition of production of COX-2: selectively inhibited
[10]
  inhibition of production of COX-1: but not COX-1

## CCOC(=O)NC(=O)CCc1ccc(Oc2ccc(/C(=C\c3cc(OC)cc(OC)c3)C(=O)OC)cc2)cc1 [Compound 8, 3-(3,5-dimethoxyphenyl)-2-{4-[4-(3-ethoxycarbonylamino-3-oxo-propyl)-phenoxy]-phenyl}-acrylic acid methyl ester]
[11]
  activity at 0.1 µM: 115%
  activity at 1 µM: 132%
  activity at 10 µM: 171%

## COc1cc(/C=C(/C(=O)N(C)C)c2ccc(Oc3ccc(CCC(=O)NC(N)=O)cc3)cc2)cc(OC)c1 [Compound 13, 3-(3,5-dimethoxyphenyl)-N,N-dimethyl-2-{4-[4-(3-oxo-3-ureido-propyl)-phenoxy]-phenyl}-acrylamide]
[12]; 1 μM
  Percent Inhibition of Enzyme Activity, PDE4: 85%
[12]; 10 μM
  Percent Inhibition of Enzyme Activity, PDE4: 98%
[12]; 30 μM
  Percent Inhibition of Enzyme Activity, PDE4: 102%
[12]; PDE4 from human U-937 promonocytic cells
  IC50: < 1 µM
[13]
  IC50: 13.6 µM
[14]; 30 μM and 10 μM, LPS 10 ng/ml / IFN-gamma 10 U/ml 15 min
  inhibition of LPS/IFN-gamma induced phosphorylation of p44/42: dose-dependent manner
[14]; 30 μM, LPS 10 ng/ml 15 min
  inhibition of LPS-induced phosphorylation of p44/42 MAP kinase: inhibited

## COC(=O)NCc1ccc(Oc2ccc(/C(=C\c3cc(OC)cc(OC)c3)C(=O)N(C)C)cc2)cc1 [Compound 29, (4-{4-[2-(3,5-dimethoxyphenyl)-1-dimethylcarbamoyl-vinyl]-phenoxy}-benzyl)-carbamic acid methyl ester]
[11]
  activity at 0.1 µM: 106%
  activity at 1 µM: 124%
  activity at 10 µM: 120%

## COc1cc(/C=C(/C(=O)N(C)C)c2ccc(Oc3ccc(CCC(N)=O)cc3)cc2)cc(OC)c1 [Compound 31, 2-{4-[4-(2-Carbamoylethyl)-phenoxy]-phenyl}-3-(3,5-dimethoxyphenyl)-N,N-dimethylacrylamide]
[11]
  activity at 0.1 µM: 107%
  activity at 1 µM: 119%
  activity at 10 µM: 161%
[15]; high dose 100 mg/kg oral twice daily for 14 days
  hind limb histology: reduction in incidence and severity of pannus formation, inflammation cell infiltration and bone/cartilage damage
[15]; high dose 100 mg/kg oral twice daily for 14 days, about same extent as dexamethasone
  arthritis clinical score (severity) compared with vehicle controls: prevented the increase in severity
[15]; [18]
  hind limb histology: marked chronic inflammation of synovium with pannus formation and destruction of bone and cartilage
  arthritis clinical score (severity) compared with vehicle controls: no apparent effect
[16]
  inhibition of LPS-induced TNF-alpha production in mice: significantly inhibited

## COc1cc(/C=C(/C(=O)N(C)C)c2ccc(Oc3ccc(CCC(=O)N4CCOCC4)cc3)cc2)cc(OC)c1 [Compound 40, 3-(3,5-Dimethoxyphenyl)-N,N-dimethyl-2-{4-[4-(3-morpholin-4-yl-3-oxopropyl)-phenoxy]phenyl}-acrylamide]
[11]
  activity at 0.1 µM: 126%
  activity at 1 µM: 117%
  activity at 10 µM: 126%

## COc1cc(/C=C(/C(=O)N2CCCCC2)c2ccc(Oc3ccc(CCC(=O)NC(N)=O)cc3)cc2)cc(OC)c1 [Compound 51, [3-(4-{4-[2-(3,5-dimethoxyphenyl)-1-(piperidine-1-carbonyl)-vinyl]-phenoxy}-phenyl)-propionyl]-urea]
[17]
  Cell viability: * (Cell viability <70%)
[11]
  activity at 0.1 µM: 93%
  activity at 1 µM: 107%
  activity at 10 µM: 136%

## CC(=O)NC(=O)CCc1ccc(Oc2ccc(/C(=C\c3ccc(F)cc3)C(=O)N(C)C)cc2)cc1 [Compound 56, 2-{4-[4-(3-acetylamino-3-oxopropyl)-phenoxy]-phenyl}-3-(4-fluorophenyl)-N,N-dimethylacrylamide]
[11]
  activity at 0.1 µM: 83%
  activity at 1 µM: 100%
  activity at 10 µM: 126%

## COc1cc(/C=C(/C(=O)Nc2ccncc2)c2ccc(Oc3ccc(CCC(=O)NC(N)=O)cc3)cc2)cc(OC)c1 [Compound 60, 3-(3,5-dimethoxyphenyl)-2-{4-[4-(3-oxo-3-ureidopropyl)-phenoxy]-phenyl}-N-pyridin-4-ylacrylamide]
[11]
  activity at 0.1 µM: 93%
  activity at 1 µM: 120%
  activity at 10 µM: 229%

## COc1cc(/C=C(/C(=O)Nc2ccc(Cl)cc2)c2ccc(Oc3ccc(CCC(=O)NC(N)=O)cc3)cc2)cc(OC)c1 [Compound 61, N-(4-chlorophenyl)-3-(3,5-dimethoxyphenyl)-2-{4-[4-(3-oxo-3-ureidopropyl)-phenoxy]-phenyl}-acrylamide]
[11]
  activity at 0.1 µM: 93%
  activity at 1 µM: 120%
  activity at 10 µM: 229%

## COc1cc(/C=C(/C(=O)N(C)C)c2ccc(Oc3ccc(CCC(=O)NCC(=O)N4CCOCC4)cc3)cc2)cc(OC)c1 [Compound 63, 3-(3,5-Dimethoxyphenyl)-N,N-dimethyl-2-(4-{4-[2-(2-morpholin-4-yl-2-oxoethylcarbamoyl)-ethyl]-phenoxy}-phenyl)-acrylamide]
[11]
  activity at 0.1 µM: 107%
  activity at 1 µM: 112%
  activity at 10 µM: 139%

## COc1cc(/C=C(/C(=O)N(C)C)c2ccc(Oc3ccc(CCC(=O)N4CCN(C)CC4)cc3)cc2)cc(OC)c1 [Compound 64, 3-(3,5-dimethoxyphenyl)-N,N-dimethyl-2-(4-{4-[3-(4-methylpiperazin-1-yl)-3-oxopropyl]-phenoxy}-phenyl)-acrylamide]
[11]
  activity at 0.1 µM: 108%
  activity at 1 µM: 113%
  activity at 10 µM: 127%

## CN(C)C(=O)/C(=C/c1cccnc1)c1ccc(Oc2ccc(CCC(N)=O)cc2)cc1 [Compound 77, 2-{4-[4-(2-carbamoyl-ethyl)-phenoxy]-phenyl}-N,N-dimethyl-3-pyridin-3-yl-acrylamide]
[16]
  inhibition of LPS-induced TNF-alpha production in mice: significantly inhibited
